Assay [1] deals with ova-sensitized, ova-challenged mice. The assay is described as follows: Prevention of airway hyperreactivity (Penh, methacholine) in mouse ovalbumin sensitization model. It is filed as in vivo.
The subject of another assay is LPS-challenged mice. The assay is described as follows: LPS-induced neutrophilia and cytokine production assay. It counts as in vivo, mouse. The settings on record: intratracheal administration; FIG. 11B.
In a further assay the test system is human monocytes. Put plainly: Human monocyte cytokine secretion assay (LPS-stimulated). It counts as cell-based. The settings on record: for IC50: Monocyte, LPS-stimulated human monocytes.
The next assay concerns the target T1, Mnk2 (Homo sapiens, UniProt Q9HBH9).
T1 construct: purchased Upstate, Millipore Bioscience Division (KinaseProfiler service)
The assay is described as follows: Kinase panel screen (KinaseProfiler), Mnk2. It is filed as biochemical. Particulars: 10 μM ATP. The protocol: Compounds of Formulae I and II were examined for activity against a selected panel of kinases using the KinaseProfiler™ enzyme profiling services (Upstate, Millipore Bioscience Division). Percent kinase activity at 10 μM and 1 μM test compound and 10 μM ATP was determined against 40 wild-type recombinant human kinases according to Upstate's standard protocol: ASK1, BTK, CSK, c-RAF, GCK, GSK3β, IKKα, IKKβ, IRAK1, IRAK4, JNK1α1, JNK2α2, JNK3, ERK1, ERK2, MAPKAP-K2, MAPKAP-K3, MEK1, MKK4, MKK6, MKK7β, Mnk2, MSK1, PAK3, PDK1, PRAK, ROCK1, Rsk2, SAPK2a, SAPK2b, SAPK3, SAPK4, SRPK1, SRPK2, Syk, TAK1, TBK1, PI3-Kβ, PI3-Kγ, PI3-Kδ.

Experimental findings from patent US20090325959A1 (priority 2008, published 2009) are described below.

Like-named read-outs stand apart in the source and are kept apart here.

Broadly, the IC50 is the point on the concentration scale where inhibition reaches its midpoint.

T1 sequence (Q9HBH9 whole entry): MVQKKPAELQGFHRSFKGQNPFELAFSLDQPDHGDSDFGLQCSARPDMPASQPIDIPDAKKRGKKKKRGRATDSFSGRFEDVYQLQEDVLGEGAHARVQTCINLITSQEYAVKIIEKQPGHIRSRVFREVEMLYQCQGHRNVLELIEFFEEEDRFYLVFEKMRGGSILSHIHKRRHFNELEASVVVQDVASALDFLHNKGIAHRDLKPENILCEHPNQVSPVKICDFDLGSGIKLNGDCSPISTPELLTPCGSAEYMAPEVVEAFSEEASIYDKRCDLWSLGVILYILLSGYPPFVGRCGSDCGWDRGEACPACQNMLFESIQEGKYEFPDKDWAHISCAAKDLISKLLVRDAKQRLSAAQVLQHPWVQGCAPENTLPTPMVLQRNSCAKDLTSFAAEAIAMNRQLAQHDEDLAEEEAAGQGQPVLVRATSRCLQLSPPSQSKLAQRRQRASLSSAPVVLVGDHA
Protocol for LPS-challenged mice: Male BALB/c mice, approximately 19 to 21 grams, were ordered from Charles River Laboratories (Raleigh, N.C.). All animals were challenged with aerosolized LPS (10 μg/ml) for 25 minutes on study day 0. LPS aerosol was generated using an Aerogen Aeroneb nebulizer and controller providing a flow of 400 μl/min and a particle size of 2-4 μm MMAD. Rolipram was administered i.p at 20 mg/kg. […] Four hours following LPS challenge, BALF was collected using a total of 3 ml of 0.9% sodium chloride containing 10% fetal calf serum. Total cell counts were determined using the Coulter Counter. For differential evaluations, BALF was centrifuged and cytospin slides prepared and stained with Hema3 stain. Manual leukocyte counts were then completed on 200 cells. The final concentration of individual leukocyte cell types per ml of BALF was determined by multiplication of the relative percentage of individual leukocytes with the total amount of cells/ml of BALF fluid. The concentration of IL-1β in the BALF samples was determined using commercially available Bio-plex kits (Bio-Rad). The analysis of cytokine levels was measured using the Bio-Plex 200 (Bio-Rad) system according to the manufacturer's instructions.
Protocol for human monocytes: Peripheral blood from healthy human volunteers was collected and the monocytes isolated via Ficoll-paque density centrifugation. […] The cells were allowed to pre-incubate with test compound at the indicated concentration for 30 minutes (37° C., 5% CO2, humidified air); after which the supernatant was removed and media containing compound and 1 ng/mL LPS was added. Cells were allowed to incubate with compounds and LPS for 4 hours at 37° C. after which the supernatant was removed and stored at −80° C. Cytokine concentrations in the supernatant were determined using commercially available Bio-Rad Bio-plex™ kits according the manufacturer's instructions.

Regarding `NC(=O)Cn1ccc2cc(CN3CC[C@@H](Nc4cccc5cnccc45)C3)ccc21` [Compound 2.059, (R)-2-(5-((3-(isoquinolin-5-ylamino)pyrrolidin-1-yl)methyl)-1H-indol-1-yl)acetamide], the “log10AUC (Penh)” value in assay [1] (0.5 μmol/kg/intratracheal, days 27 to 31) is listed as 1.9979. Further, the airway hyperreactivity result in assay [1] (intratracheal once a day during days 27 to 31) is “prevention of airway hyperreactivity”. In the assay with LPS-challenged mice, the “IL-1β levels in BALF from LPS-challenged mice” value was “reduction”. Besides, the IC50 in the assay with human monocytes (read-out: IC50 for inhibition of IL-1β secretion) came out at 169 ± 13 nM; in the assay with human monocytes (read-out: IC50 for inhibition of IL-9 secretion), 269 ± 28.1 nM; in the assay with human monocytes (read-out: IC50 for inhibition of TNF-α secretion), 207 ± 17 nM. Besides, the “IL-6, %” value with human monocytes (average percent of stimulated IL-6 secretion from human monocytes at 10 μM of test compound) turned out to be 0.0%. Moreover, the activity at 1 µM at Mnk2 (1 μM test compound, read-out: Mnk2 Percent inhibition, 1 μM) is 49%. In addition, the activity at 10 µM at Mnk2 (10 μM test compound, read-out: Mnk2 Percent inhibition, 10 μM) turned out to be 12%.
